# Test results reported in US6489469B1, “Method for storing or transporting erythritol solution” (Nikken Chemicals Co., Ltd., priority 1999, dated 2002).
# System: Aspergillus niger IFO 6342
# Experiment: Viable Count of Aspergillus niger IFO 6342 in Erythritol Solution
# Assay type: cell-based
# Description: Erythritol solutions of respective concentrations in the range of from 30 to 60% were prepared. To these were inoculated Staphylococcus aureus IFO 13276, Bacillus subtilis IFO 3134, and Escherichia coli IFO 3972 as bacteria, Candida albicans IFO 1549 and Saccharomyces cerevisiae ATCC 9763 as yeasts, Aspergillus niger IFO 6342, Aspergillus flavus IFO 6343, and Penicillium funiculosum IFO 6345 as fungi, respectively, in a population (concentration) of 10,000 cells/mL or more. After the inoculation, the solutions were stored at 30, 37, 45, 50, or 60° C., respectively, for 56 days and the number of viable cell was determined daily. The determination of the number of viable cell was performed by a method of coating 0.1 mL of appropriately diluted sample cultivation on an agar plate and cultivating and counting the number of viable cell (the number of colony) that grew after the cultivation.
smiles,measurement,setting,value
"OC[C@@H](O)[C@@H](O)CO [Erythritol Solution, erythritol]",The Number of Viable Cell,"45° C., 30% w/w, Day 0",≥ 10000 cells/mL
same,The Number of Viable Cell,"45° C., 30% w/w, Day 3",≥ 10000 cells/mL
same,The Number of Viable Cell,"45° C., 30% w/w, Day 7",≥ 10000 cells/mL
same,The Number of Viable Cell,"45° C., 30% w/w, Day 14",≥ 10000 cells/mL
same,The Number of Viable Cell,"45° C., 30% w/w, Day 28",≥ 10000 cells/mL
same,The Number of Viable Cell,"45° C., 30% w/w, Day 56",0 cells/mL
same,The Number of Viable Cell,"45° C., 40% w/w, Day 0",≥ 10000 cells/mL
same,The Number of Viable Cell,"45° C., 40% w/w, Day 3",≥ 10000 cells/mL
same,The Number of Viable Cell,"45° C., 40% w/w, Day 7",≥ 10000 cells/mL
same,The Number of Viable Cell,"45° C., 40% w/w, Day 14",≥ 10000 cells/mL
same,The Number of Viable Cell,"45° C., 40% w/w, Day 28",0 cells/mL
same,The Number of Viable Cell,"45° C., 40% w/w, Day 56",0 cells/mL
same,The Number of Viable Cell,"45° C., 50% w/w, Day 0",≥ 10000 cells/mL
same,The Number of Viable Cell,"45° C., 50% w/w, Day 3",≥ 10000 cells/mL
same,The Number of Viable Cell,"45° C., 50% w/w, Day 7",≥ 10000 cells/mL
same,The Number of Viable Cell,"45° C., 50% w/w, Day 14",≥ 10000 cells/mL
same,The Number of Viable Cell,"45° C., 50% w/w, Day 28",0 cells/mL
same,The Number of Viable Cell,"45° C., 50% w/w, Day 56",0 cells/mL
same,The Number of Viable Cell,"50° C., 30% w/w, Day 0",≥ 10000 cells/mL
same,The Number of Viable Cell,"50° C., 30% w/w, Day 3",0 cells/mL
same,The Number of Viable Cell,"50° C., 30% w/w, Day 7",0 cells/mL
same,The Number of Viable Cell,"50° C., 30% w/w, Day 14",0 cells/mL
same,The Number of Viable Cell,"50° C., 30% w/w, Day 28",0 cells/mL
same,The Number of Viable Cell,"50° C., 30% w/w, Day 56",0 cells/mL
same,The Number of Viable Cell,"50° C., 40% w/w, Day 0",≥ 10000 cells/mL
same,The Number of Viable Cell,"50° C., 40% w/w, Day 3",≥ 10000 cells/mL
same,The Number of Viable Cell,"50° C., 40% w/w, Day 7",0 cells/mL
same,The Number of Viable Cell,"50° C., 40% w/w, Day 14",0 cells/mL
same,The Number of Viable Cell,"50° C., 40% w/w, Day 28",0 cells/mL
same,The Number of Viable Cell,"50° C., 40% w/w, Day 56",0 cells/mL
same,The Number of Viable Cell,"50° C., 50% w/w, Day 0",≥ 10000 cells/mL
same,The Number of Viable Cell,"50° C., 50% w/w, Day 3",≥ 10000 cells/mL
same,The Number of Viable Cell,"50° C., 50% w/w, Day 7",0 cells/mL
same,The Number of Viable Cell,"50° C., 50% w/w, Day 14",0 cells/mL
same,The Number of Viable Cell,"50° C., 50% w/w, Day 28",0 cells/mL
same,The Number of Viable Cell,"50° C., 50% w/w, Day 56",0 cells/mL
same,The Number of Viable Cell,"60° C., 30% w/w, Day 0",≥ 10000 cells/mL
same,The Number of Viable Cell,"60° C., 30% w/w, Day 3",0 cells/mL
same,The Number of Viable Cell,"60° C., 30% w/w, Day 7",0 cells/mL
same,The Number of Viable Cell,"60° C., 30% w/w, Day 14",0 cells/mL
same,The Number of Viable Cell,"60° C., 30% w/w, Day 28",0 cells/mL
same,The Number of Viable Cell,"60° C., 30% w/w, Day 56",0 cells/mL
same,The Number of Viable Cell,"60° C., 40% w/w, Day 0",≥ 10000 cells/mL
same,The Number of Viable Cell,"60° C., 40% w/w, Day 3",0 cells/mL
same,The Number of Viable Cell,"60° C., 40% w/w, Day 7",0 cells/mL
same,The Number of Viable Cell,"60° C., 40% w/w, Day 14",0 cells/mL
same,The Number of Viable Cell,"60° C., 40% w/w, Day 28",0 cells/mL
same,The Number of Viable Cell,"60° C., 40% w/w, Day 56",0 cells/mL
same,The Number of Viable Cell,"60° C., 50% w/w, Day 0",≥ 10000 cells/mL
same,The Number of Viable Cell,"60° C., 50% w/w, Day 3",0 cells/mL
same,The Number of Viable Cell,"60° C., 50% w/w, Day 7",0 cells/mL
same,The Number of Viable Cell,"60° C., 50% w/w, Day 14",0 cells/mL
same,The Number of Viable Cell,"60° C., 50% w/w, Day 28",0 cells/mL
same,The Number of Viable Cell,"60° C., 50% w/w, Day 56",0 cells/mL
same,The Number of Viable Cell,"60° C., 60% w/w, Day 0",≥ 10000 cells/mL
same,The Number of Viable Cell,"60° C., 60% w/w, Day 3",0 cells/mL
